Like-named read-outs stand apart in the source and are kept apart here. Bridge positions count the residues as written; N and C are the ends. Square brackets hold non-standard residues; d marks the D form. Peptide text beside a SMILES is read from it. 1Nal = N[C@@H](Cc1cccc2ccccc12)C(=O)O
Legend:
[1] = system: thapsigargin-induced IFN-g production in human whole blood; format: cell-based
[2] = system: thapsigargin-induced IL-2 production in human whole blood
[3] = read-out: Analogue Activity (IC50) WB/IFNg
[4] = read-out: Analogue Activity (IC50) WB/IL-2

CC[C@H](C)[C@@H]1NC(=O)[C@H](CCCCN)NC(=O)[C@@H](NC(=O)[C@H](CCCCN)NC(=O)[C@@H](NC(=O)[C@H](CC(N)=O)NC(=O)[C@H](CCC(=O)O)NC(=O)[C@@H](NC(=O)[C@@H](NC(=O)CN)C(C)C)[C@@H](C)CC)C(C)C)CSSC[C@@H]2NC(=O)[C@H](CCCCN)NC(=O)CNC(=O)[C@H](Cc3ccccc3)NC(=O)[C@H](CCCNC(=N)N)NC(=O)[C@H](CCSC)NC(=O)CNC(=O)[C@H](C)NC(=O)[C@H](CCCCN)NC(=O)[C@H](CCCCN)NC(=O)[C@@H]3CSSC[C@@H](C(=O)N[C@H](C(=O)N4CCC[C@H]4C(=O)N[C@@H](CCCCN)C(=O)O)[C@@H](C)O)NC(=O)[C@H](Cc4c[nH]cn4)NC(=O)[C@H](CSSC[C@H](NC(=O)[C@H](CCC(N)=O)NC(=O)[C@H](CCCNC(=N)N)NC(=O)[C@H](CO)NC1=O)C(=O)N[C@@H](CC(C)C)C(=O)N[C@@H](CCC(=O)O)C(=O)N1CCC[C@H]1C(=O)N3)NC(=O)[C@H](CCCCN)NC(=O)CNC(=O)[C@H](CC(N)=O)NC(=O)[C@H](CCSC)NC2=O [I4E] (H-GVIENVKCKISRQCLEPCKKAGMRFGKCMNGKCHCTPK-OH; disulfide 8-28, 14-33, 18-35) showed an IC50 [1, 3] of 0.191 nM and an IC50 [2, 4] of 0.218 nM.

Work on “GVIINVACKISRQCLEPCKKAGMRFGKCMNGKCHCTPK [Ala-7 (SEQ ID No: 1406)]” yielded an IC50 ([1]; read-out: Average IC50 IFNg) of 0.0591 nM and an IC50 ([2]; read-out: Average IC50 IL-2) of 0.0675 nM.

With CC[C@H](C)[C@@H]1NC(=O)[C@H](CCCCN)NC(=O)[C@@H](NC(=O)[C@H](CCCCN)NC(=O)[C@@H](NC(=O)[C@H](CC(N)=O)NC(=O)[C@@H](NC(=O)[C@@H](NC(=O)[C@@H](NC(=O)CN)C(C)C)[C@@H](C)CC)[C@@H](C)CC)C(C)C)CSSC[C@@H]2NC(=O)[C@H](CCCCN)NC(=O)CNC(=O)[C@H](Cc3ccccc3)NC(=O)[C@H](CCCNC(=N)N)NC(=O)[C@H](CCSC)NC(=O)CNC(=O)[C@H](C)NC(=O)[C@H](CCCCN)NC(=O)[C@H](CCCCN)NC(=O)[C@@H]3CSSC[C@@H](C(=O)N[C@H](C(=O)N4CCC[C@H]4C(=O)N[C@@H](CCCCN)C(=O)O)[C@@H](C)O)NC(=O)[C@H](Cc4c[nH]cn4)NC(=O)[C@H](CSSC[C@H](NC(=O)[C@H](CCC(N)=O)NC(=O)[C@H](CCCNC(=N)N)NC(=O)[C@H](CO)NC1=O)C(=O)N[C@@H](CC(C)C)C(=O)N[C@@H](CCC(=O)O)C(=O)N1CCC[C@H]1C(=O)N3)NC(=O)[C@H](CCCCN)NC(=O)[C@H](Cc1cccc3ccccc13)NC(=O)[C@H](CC(N)=O)NC(=O)[C@H](CCSC)NC2=O [G31Nal] (H-GVIINVKCKISRQCLEPCKKAGMRFGKCMN[1Nal]KCHCTPK-OH; disulfide 8-28, 14-33, 18-35) the IC50 [1, 3] was 0.467 nM and the IC50 [2, 4] was 0.331 nM.

CC[C@H](C)[C@@H]1NC(=O)[C@H](CCCCN)NC(=O)[C@@H](NC(=O)[C@H](CCCCN)NC(=O)[C@@H](NC(=O)[C@H](CC(N)=O)NC(=O)[C@@H](NC(=O)[C@@H](NC(=O)[C@@H](NC(=O)[C@@H](N)CCCNC(=N)N)C(C)C)[C@@H](C)CC)[C@@H](C)CC)C(C)C)CSSC[C@@H]2NC(=O)[C@H](CCCCN)NC(=O)CNC(=O)[C@H](Cc3ccccc3)NC(=O)[C@H](CCCNC(=N)N)NC(=O)[C@H](CCSC)NC(=O)CNC(=O)[C@H](C)NC(=O)[C@H](CCCCN)NC(=O)[C@H](CCCCN)NC(=O)[C@@H]3CSSC[C@@H](C(=O)N[C@H](C(=O)N4CCC[C@H]4C(=O)N[C@@H](CCCCN)C(=O)O)[C@@H](C)O)NC(=O)[C@H](Cc4c[nH]cn4)NC(=O)[C@H](CSSC[C@H](NC(=O)[C@H](CCC(N)=O)NC(=O)[C@H](CCCNC(=N)N)NC(=O)[C@H](CO)NC1=O)C(=O)N[C@@H](CC(C)C)C(=O)N[C@@H](CCC(=O)O)C(=O)N1CCC[C@H]1C(=O)N3)NC(=O)[C@H](CCCCN)NC(=O)CNC(=O)[C@H](CC(N)=O)NC(=O)[C@H](CCSC)NC2=O [G1R] (H-RVIINVKCKISRQCLEPCKKAGMRFGKCMNGKCHCTPK-OH; disulfide 8-28, 14-33, 18-35) was tested, and the IC50 [1, 3] was 0.991 nM and the IC50 [2, 4] was 0.554 nM.

Work on CC[C@H](C)[C@@H]1NC(=O)[C@H](CCCNC(=N)N)NC(=O)[C@@H](NC(=O)[C@H](CCCCN)NC(=O)[C@@H](NC(=O)[C@H](CC(N)=O)NC(=O)[C@@H](NC(=O)[C@@H](NC(=O)[C@@H](NC(=O)CN)C(C)C)[C@@H](C)CC)[C@@H](C)CC)C(C)C)CSSC[C@@H]2NC(=O)[C@H](CCCCN)NC(=O)CNC(=O)[C@H](Cc3ccccc3)NC(=O)[C@H](CCCNC(=N)N)NC(=O)[C@H](CCSC)NC(=O)CNC(=O)[C@H](C)NC(=O)[C@H](CCCCN)NC(=O)[C@H](CCCCN)NC(=O)[C@@H]3CSSC[C@@H](C(=O)N[C@H](C(=O)N4CCC[C@H]4C(=O)N[C@@H](CCCCN)C(=O)O)[C@@H](C)O)NC(=O)[C@H](Cc4c[nH]cn4)NC(=O)[C@H](CSSC[C@H](NC(=O)[C@H](CCC(N)=O)NC(=O)[C@H](CCCNC(=N)N)NC(=O)[C@H](CO)NC1=O)C(=O)N[C@@H](CC(C)C)C(=O)N[C@@H](CCC(=O)O)C(=O)N1CCC[C@H]1C(=O)N3)NC(=O)[C@H](CCCCN)NC(=O)CNC(=O)[C@H](CC(N)=O)NC(=O)[C@H](CCSC)NC2=O [K9R] (H-GVIINVKCRISRQCLEPCKKAGMRFGKCMNGKCHCTPK-OH; disulfide 8-28, 14-33, 18-35) yielded an IC50 [1, 3] of 0.077 nM and an IC50 [2, 4] of 0.107 nM.

In the case of CC[C@H](C)[C@@H]1NC(=O)[C@H](CCCCN)NC(=O)[C@@H](NC(=O)[C@H](CCCCN)NC(=O)[C@@H](NC(=O)[C@H](CC(N)=O)NC(=O)[C@@H](NC(=O)[C@@H](NC(=O)[C@@H](NC(=O)CN)C(C)C)[C@@H](C)CC)[C@@H](C)CC)C(C)C)CSSC[C@@H]2NC(=O)[C@H](CCCCN)NC(=O)CNC(=O)[C@H](Cc3ccccc3)NC(=O)[C@H](CCCNC(=N)N)NC(=O)[C@H](CCSC)NC(=O)CNC(=O)[C@H](C)NC(=O)[C@H](CCCCN)NC(=O)[C@H](CCCCN)NC(=O)[C@@H]3CSSC[C@@H](C(=O)N[C@H](C(=O)N[C@@H](Cc4cccc5ccccc45)C(=O)N[C@@H](CCCCN)C(=O)O)[C@@H](C)O)NC(=O)[C@H](Cc4c[nH]cn4)NC(=O)[C@H](CSSC[C@H](NC(=O)[C@H](CCC(N)=O)NC(=O)[C@H](CCCNC(=N)N)NC(=O)[C@H](CO)NC1=O)C(=O)N[C@@H](CC(C)C)C(=O)N[C@@H](CCC(=O)O)C(=O)N1CCC[C@H]1C(=O)N3)NC(=O)[C@H](CCCCN)NC(=O)CNC(=O)[C@H](CC(N)=O)NC(=O)[C@H](CCSC)NC2=O [P37Nal] (H-GVIINVKCKISRQCLEPCKKAGMRFGKCMNGKCHCT[1Nal]K-OH; disulfide 8-28, 14-33, 18-35), the IC50 [1, 3] is reported as 3.04 nM and the IC50 [2, 4] is reported as 1.76 nM.

CC[C@H](C)[C@@H]1NC(=O)[C@H](CCCCN)NC(=O)[C@@H](NC(=O)[C@H](CCCCN)NC(=O)[C@H](CCC(=O)O)NC(=O)[C@H](CC(N)=O)NC(=O)[C@@H](NC(=O)[C@@H](NC(=O)[C@@H](NC(=O)CN)C(C)C)[C@@H](C)CC)[C@@H](C)CC)CSSC[C@@H]2NC(=O)[C@H](CCCCN)NC(=O)CNC(=O)[C@H](Cc3ccccc3)NC(=O)[C@H](CCCNC(=N)N)NC(=O)[C@H](CCSC)NC(=O)CNC(=O)[C@H](C)NC(=O)[C@H](CCCCN)NC(=O)[C@H](CCCCN)NC(=O)[C@@H]3CSSC[C@@H](C(=O)N[C@H](C(=O)N4CCC[C@H]4C(=O)N[C@@H](CCCCN)C(=O)O)[C@@H](C)O)NC(=O)[C@H](Cc4c[nH]cn4)NC(=O)[C@H](CSSC[C@H](NC(=O)[C@H](CCC(N)=O)NC(=O)[C@H](CCCNC(=N)N)NC(=O)[C@H](CO)NC1=O)C(=O)N[C@@H](CC(C)C)C(=O)N[C@@H](CCC(=O)O)C(=O)N1CCC[C@H]1C(=O)N3)NC(=O)[C@H](CCCCN)NC(=O)CNC(=O)[C@H](CC(N)=O)NC(=O)[C@H](CCSC)NC2=O [V6E] (H-GVIINEKCKISRQCLEPCKKAGMRFGKCMNGKCHCTPK-OH; disulfide 8-28, 14-33, 18-35) was tested, and the IC50 [1, 3] was 0.068 nM and the IC50 [2, 4] was 0.048 nM.
